Assay results: ChEMBL document CHEMBL3627663, “Synthesis and evaluation of 1-hydroxy/methoxy-4-methyl-2-phenyl-1H-imidazole-5-carboxylic acid derivatives as non-purine xanthine oxidase inhibitors” (Eur J Med Chem, 2015); call rule not given here

Legend:
[1] = biological target: T1, Xanthine dehydrogenase/oxidase (Bos taurus, UniProt P80457); assay: Inhibition of bovine XO at 10 ug/ml using xanthine as substrate after 120 mins by spectrophotometric analysis; settings: cattle, 2 h
[2] = biological target: T1, Xanthine dehydrogenase/oxidase; assay: Inhibition of bovine XO using xanthine as substrate after 120 mins by spectrophotometric analysis
[3] = biological target: T1, Xanthine dehydrogenase/oxidase; assay: Ratio of Febuxostat IC50 to compound IC50 for bovine XO; settings: cattle
[4] = biological target: T1, Xanthine dehydrogenase/oxidase; assay: Mixed-type inhibition of bovine XO using xanthine as substrate by Lineweaver-Burk plot analysis; settings: cattle

T1 sequence (P80457 whole entry): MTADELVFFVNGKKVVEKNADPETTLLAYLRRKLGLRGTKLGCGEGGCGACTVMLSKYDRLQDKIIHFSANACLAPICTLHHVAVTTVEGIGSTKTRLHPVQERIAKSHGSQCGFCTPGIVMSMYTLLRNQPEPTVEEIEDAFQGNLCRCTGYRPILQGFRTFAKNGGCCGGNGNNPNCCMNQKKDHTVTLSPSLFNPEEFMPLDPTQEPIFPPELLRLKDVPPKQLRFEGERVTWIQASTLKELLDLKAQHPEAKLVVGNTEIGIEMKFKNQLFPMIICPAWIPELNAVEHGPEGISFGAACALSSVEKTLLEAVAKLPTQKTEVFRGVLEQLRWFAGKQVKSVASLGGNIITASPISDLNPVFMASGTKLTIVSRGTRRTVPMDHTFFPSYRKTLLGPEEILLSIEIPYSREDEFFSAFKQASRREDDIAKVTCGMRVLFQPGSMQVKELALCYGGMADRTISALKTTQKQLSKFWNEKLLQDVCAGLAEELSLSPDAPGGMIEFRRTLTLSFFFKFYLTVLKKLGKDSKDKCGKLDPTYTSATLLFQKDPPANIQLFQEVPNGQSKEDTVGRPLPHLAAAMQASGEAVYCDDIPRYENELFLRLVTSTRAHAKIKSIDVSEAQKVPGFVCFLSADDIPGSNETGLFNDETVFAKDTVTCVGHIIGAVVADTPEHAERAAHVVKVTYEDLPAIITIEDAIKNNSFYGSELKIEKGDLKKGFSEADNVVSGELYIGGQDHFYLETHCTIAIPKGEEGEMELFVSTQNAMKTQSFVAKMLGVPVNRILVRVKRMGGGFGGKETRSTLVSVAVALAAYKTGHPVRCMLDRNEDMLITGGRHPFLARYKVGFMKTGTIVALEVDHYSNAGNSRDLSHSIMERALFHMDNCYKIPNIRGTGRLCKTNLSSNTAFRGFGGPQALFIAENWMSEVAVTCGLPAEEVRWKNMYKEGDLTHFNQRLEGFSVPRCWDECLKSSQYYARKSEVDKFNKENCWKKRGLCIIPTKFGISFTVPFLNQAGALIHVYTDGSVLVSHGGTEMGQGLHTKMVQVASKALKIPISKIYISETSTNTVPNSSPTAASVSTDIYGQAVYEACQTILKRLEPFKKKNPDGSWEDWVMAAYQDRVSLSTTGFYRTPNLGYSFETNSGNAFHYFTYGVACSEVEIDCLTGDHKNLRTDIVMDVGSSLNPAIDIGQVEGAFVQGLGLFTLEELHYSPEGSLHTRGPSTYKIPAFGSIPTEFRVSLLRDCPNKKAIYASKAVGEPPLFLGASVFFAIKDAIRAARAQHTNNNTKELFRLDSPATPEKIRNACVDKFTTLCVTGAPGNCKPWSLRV

SMILES | inhibition (INH) [1] [%] | IC50 [2] [nM] | Ratio IC50 [3] | inhibition (INH) [4] | inhibition (INH) ([2]; cattle, 2 h)
COc1ccc(-c2nc(C)c(C(=O)O)n2O)cc1C#N | 90.14 | 550 |  |  | 
CCCOc1ccc(-c2nc(C)c(C(=O)O)n2O)cc1C#N | 89.77 | 130 |  |  | 
Cc1nc(-c2ccc(OC(C)C)c(C#N)c2)n(O)c1C(=O)O | 91.04 | 170 |  |  | 
CCCCOc1ccc(-c2nc(C)c(C(=O)O)n2O)cc1C#N | 89.57 | 3 | 3.3 |  | 
CCC(C)Oc1ccc(-c2nc(C)c(C(=O)O)n2O)cc1C#N (stereo not drawn) | 88.33 | 3 | 3.3 |  | 
Cc1nc(-c2ccc(OCC(C)C)c(C#N)c2)n(O)c1C(=O)O | 94.08 | 6 | 1.7 | Active | Dose-dependent effect
Cc1nc(-c2ccc(OCCC(C)C)c(C#N)c2)n(O)c1C(=O)O | 91.25 | 30 |  |  | 
CCCCCCOc1ccc(-c2nc(C)c(C(=O)O)n2O)cc1C#N | 92.51 | 30 |  |  | 
CCCCCCCOc1ccc(-c2nc(C)c(C(=O)O)n2O)cc1C#N | 89.93 | 110 |  |  | 
CCCCCCCCOc1ccc(-c2nc(C)c(C(=O)O)n2O)cc1C#N | 88.17 | 1200 |  |  | 
Cc1ccc(COc2ccc(-c3nc(C)c(C(=O)O)n3O)cc2C#N)cc1 | 91.65 | 110 |  |  | 
COc1ccc(-c2nc(C)c(C(=O)O)n2OC)cc1C#N | 10.68 |  |  |  | 
CCCOc1ccc(-c2nc(C)c(C(=O)O)n2OC)cc1C#N | 18.34 |  |  |  | 
COn1c(-c2ccc(OC(C)C)c(C#N)c2)nc(C)c1C(=O)O | 32.91 |  |  |  | 
CCCCOc1ccc(-c2nc(C)c(C(=O)O)n2OC)cc1C#N | 41.19 |  |  |  | 
CCC(C)Oc1ccc(-c2nc(C)c(C(=O)O)n2OC)cc1C#N (stereo not drawn) | 83.13 | 1500 |  |  | 
COn1c(-c2ccc(OCC(C)C)c(C#N)c2)nc(C)c1C(=O)O | 31.91 |  |  |  | 
COn1c(-c2ccc(OCCC(C)C)c(C#N)c2)nc(C)c1C(=O)O | 59.55 | 8000 |  |  | 
CCCCCCOc1ccc(-c2nc(C)c(C(=O)O)n2OC)cc1C#N | 80.34 | 3900 |  |  | 
CCCCCCCOc1ccc(-c2nc(C)c(C(=O)O)n2OC)cc1C#N | 26.8 |  |  |  | 
CCCCCCCCOc1ccc(-c2nc(C)c(C(=O)O)n2OC)cc1C#N | 19 |  |  |  | 
COn1c(-c2ccc(OCc3ccc(C)cc3)c(C#N)c2)nc(C)c1C(=O)O | 86.72 | 1100 |  |  | 
Cc1nc(-c2ccc(OCC(C)C)c(C#N)c2)sc1C(=O)O [FEBUXOSTAT] | 90.89 |  |  |  | 
